Source: patent US6399658B1, “Composition containing ascorbic acid” (Sumitomo Pharmaceuticals Co., Ltd., priority 1996, dated 2002)

What was measured:
KKAy mice [1] = test: Reduction of blood sugar levels in diabetic model animals (KKAy mice), metformin hydrochloride + L-ascorbic acid study; format: in vivo, mouse; details: p.o. twice a day for 5 days; for Blood glucose levels: 2 hr after last administration, metformin hydrochloride 600, L-ascorbic acid 2900, metformin hydrochloride 600 + L-ascorbic acid 2900 mg/kg/dose
Text: . The experimental schedule was as follows.

KKAy mice [2] = test: Reduction of blood sugar levels in diabetic model animals (KKAy mice), metformin L-ascorbate study; details: p.o. twice a day for 5 days; for Blood glucose levels: 2 hr after last administration, metformin hydrochloride 600, L-ascorbic acid 800, metformin L-ascorbate 1400 mg/kg/dose
5/6 nephrectomy rats = details: p.o. twice a day for 4 days
Text: After 5-week old Wistar rats were acclimatized for 7 to 10 days, 2/3 of left kidney were removed. After the rats were bred and observed for 7 days, all right kidney was removed. After the rats were bred and observed for 7 to 10 days, the rats were used for experiments.
The experimental schedule was as follows. 5/6 Nephrectomy rats were divided into four groups according to their weight, blood urea nitrogen levels and serum creatinine levels after preliminary breeding and observation after purchase. […] The volume of administrated liquids was 5 mL/kg/dose. […] Blood was collected from tail vein under ether anesthetics at the day 5, and the blood lactic acid levels were measured.

3T3-L1 adipocytes = test: Lactic acid increase induced by metformin hydrochloride in 3T3-L1 adipocytes; format: cell-based, mouse; details: for Lactic acid levels: additive 40 mM together with metformin hydrochloride 10 mM, medium after 24 hr, 30% O2/5% CO2
Protocol: Then the cells were differentiated to adipocytes according to the following procedure. […] The medium was changed with the same fresh medium every 48 hr until experiments. Lactic acid levels were measured by enzyme assay on lactate dehydrogenase and glutamate pyruvate transaminase, using Lactate Test BMY (Boehringer Mannheim). To the plate of the differentiated 3T3-L1 cells were added metoformin hydrochloride (10 mM) and various acids (40 mM), and the differentiated 3T3-L1 cells were incubated under 30% O2/5% CO2 condition for 24 hr. Lactic acid levels in the medium were measured.

[3] = tested on: rat hepatocytes primary culture; test: Inhibition of gluconeogenesis in rat hepatocytes primary culture; format: cell-based; details: 6 hr; for Glucose levels in the medium: Hanks solution containing 0.1% fructose
Protocol: Hepatocytes were isolated from a male Wistar rat. The isolated hepatocytes were grown on gelatin coated 24-well plate (3×10^5 cells/well) in Williams E medium containing 10 nM dexamethasone and 5% fetal calf serum under the 37° C., 5% CO2/95% air condition for 24 hr.
After the plates of hepatocytes primary culture were washed by phosphate buffer twice, the medium were changed to Hanks solution containing 0.1% fructose (depletion glucose). […] Glucose levels (mg/dL) in the medium were measured.

CN(C)C(=N)NC(=N)N.Cl [Metformin hydrochloride, 1,1-dimethylbiguanide hydrochloride]
Effect for reducing blood glucose levels (in words) (KKAy mice [1]): Significant effects for reducing blood glucose levels | Blood glucose levels (KKAy mice [1]): 286.5 ± 63.1 mg/dL | Effect for reducing blood glucose levels (in words) (KKAy mice [2]): Significant effects for reducing blood glucose levels | Blood glucose levels (KKAy mice [2]): 247.6 ± 30.2 mg/dL

CN(C)C(=N)N=C(N)N.O=C1OC(C(O)CO)C(O)=C1O [Metformin L-ascorbate]
Blood lactic acid levels (5/6 nephrectomy rats; blood at day 5, metformin hydrochloride 250 mg/kg/dose, metformin L-ascorbate 461 mg/kg/dose, metformin hydrochloride 250 + L-ascorbic acid 266 mg/kg/dose (same moles of metformin)): 40.2 ± 6.2 (†)(*) mg/dL | Blood lactic acid levels compared with metformin hydrochloride group (in words) (5/6 nephrectomy rats; day 5): significantly lower than metformin hydrochloride group | Blood lactic acid levels compared with vehicle group (in words) (5/6 nephrectomy rats; day 5): significantly higher than vehicle group | Effect for reducing blood glucose levels (in words) (KKAy mice [2]): Significant effects for reducing blood glucose levels | Blood glucose levels (KKAy mice [2]): 270.3 ± 78.2 mg/dL

O=C(O)CC(O)C(=O)O (stereo not shown) [Malic acid, malic acid]
Lactic acid levels (3T3-L1 adipocytes): 143 mg/dL

O=C(O)CC(O)(CC(=O)O)C(=O)O [Citric acid, citric acid]
Lactic acid levels (3T3-L1 adipocytes): 155 mg/dL

O=C1O[C@H]([C@@H](O)CO)C(O)=C1O [L-ascorbic acid]
Effect on lactic acid increase induced by metformin hydrochloride (in words) (3T3-L1 adipocytes; 40 mM with metformin hydrochloride 10 mM, 24 hr): prevented lactic acid increase induced by metformin hydrochloride | Lactic acid levels (3T3-L1 adipocytes): 73 mg/dL | Blood glucose levels (KKAy mice [1]): 367.0 ± 45.3 mg/dL | Glucose levels in the medium ([3]; 1 mM (each 1 mM for the combination)): 14.6 mg/dL | Glucose levels in the medium ([3]; 3 mM (each 3 mM for the combination)): 10.6 mg/dL | Effect on gluconeogenesis (in words) ([3]; 1 or 3 mM): Gluconeogenesis was reduced | Blood glucose levels (KKAy mice [2]): 392.8 ± 45.3 mg/dL

O=C(O)CCC(=O)O [Succinic acid, succinic acid]
Lactic acid levels (3T3-L1 adipocytes): 145 mg/dL
